These results are taken from ChEMBL document CHEMBL1828533, “Lipid and sulfur substituted prenylcysteine analogs as human Icmt inhibitors” (Bioorg Med Chem Lett, 2011).

The structures appear in SMILES notation. Activity calls are given as the source filed them. The calls are words filed in the database; no cut-off is given here.

In general, inhibition refers to the relative decrease from the control value, in per cent. A high value points to a response far below the control. What is called IC50 is the midpoint of a concentration-inhibition curve. Read a low IC50 as inhibition by little substance.

Assay [1] addresses T1, Protein-S-isoprenylcysteine O-methyltransferase (Homo sapiens, UniProt O60725). The assay is described as follows: Inhibition of human ICMT at 10 uM by vapor diffusion assay.
Assay [2] concerns the target T1, Protein-S-isoprenylcysteine O-methyltransferase. The assay is described as follows: Substrate activity at human ICMT by vapor diffusion assay.
Assay [3] shares this target. The assay can be described thus: Inhibition of human ICMT by vapor diffusion assay.
Assay [4] shares this target. The assay can be described thus: Inhibition of human ICMT at 25 uM by vapor diffusion assay.

T1 sequence (O60725 whole entry, the tested form may be a part): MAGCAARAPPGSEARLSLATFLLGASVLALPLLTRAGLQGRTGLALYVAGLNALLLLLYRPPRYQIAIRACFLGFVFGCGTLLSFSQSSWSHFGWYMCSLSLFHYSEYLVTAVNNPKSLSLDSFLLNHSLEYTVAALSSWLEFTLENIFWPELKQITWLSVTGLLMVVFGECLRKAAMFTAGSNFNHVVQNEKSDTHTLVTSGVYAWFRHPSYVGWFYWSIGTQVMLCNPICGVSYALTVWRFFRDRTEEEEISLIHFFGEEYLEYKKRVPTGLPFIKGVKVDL

`CC(=O)N[C@@H](CSC/C=C(\C)CCCCOc1ccc(Oc2ccccc2)cc1)C(=O)O` showed an inhibition in assay [1] of 19.4%. On the same count and under the same terms, the value for `CC(=O)N[C@@H](CSC/C=C(\C)COc1ccc(Cc2ccccc2)cc1)C(=O)O` was 9.8%.

For `COc1ccc([N+](=O)[O-])c(C(=O)N[C@@H](Cn2cc(C/C=C(\C)CC/C=C(\C)CCC=C(C)C)nn2)C(=O)O)c1`, the inhibition in assay [1] amounted to 10.1%. For the same compound, the result in assay [2] was inactive.

`CC(=O)N[C@@H](CSC/C=C(\C)COc1ccc2ccccc2c1)C(=O)O` came in with an inhibition in assay [1] of 14.5%.

For the compound `CCCCCCCCc1ccc(CC/C(C)=C/CSC[C@H](NC(C)=O)C(=O)O)cc1`, in assay [1], the inhibition amounted to 31.1%. The same compound registered an IC50 in assay [3] of 34.6 µM.

Take `CC(C)=CCC/C(C)=C/CC/C(C)=C/Cc1cn(C[C@H](NC(=O)c2ccccc2-c2ccccc2)C(=O)O)nn1`: in assay [1], the inhibition is 17%. Also, in assay [2], the outcome was inactive. Turning to `CC(=O)N[C@@H](CSC/C=C(/Cc1ccc(-c2ccccc2)cc1)c1ccccc1)C(=O)O`, the inhibition in assay [1] is 26.6%.

`CC(=O)N[C@@H](CSC/C=C(\C)COc1ccc(Oc2ccccc2)cc1)C(=O)O`: the inhibition in assay [1] was 15.5%. Compound `CC(C)=CCC/C(C)=C/CC/C(C)=C/Cc1cn(C[C@H](NC(=O)CCS(=O)(=O)c2ccccc2)C(=O)O)nn1` came in with an inhibition in assay [1] of 22.7%. The result in assay [2] was inactive. In assay [1], `CCCCCCc1ccc(CC/C(C)=C/CSC[C@H](NC(C)=O)C(=O)O)cc1` came in with an inhibition of 18.8%. For the compound `CC(C)=CCC/C(C)=C/CC/C(C)=C/Cc1cn(C[C@H](NC(=O)c2ccccc2Oc2ccccc2)C(=O)O)nn1`, the inhibition in assay [1] was 35.9%. In assay [3], half-maximal inhibition (IC50) required 19.4 µM. With `CC(=O)N[C@@H](Cn1cc(C/C=C(\C)CC/C=C(\C)CCC=C(C)C)nn1)C(=O)O`, in assay [1], the inhibition came to 19.5%. Further, in assay [2], the outcome was inactive. On to `CC(=O)N[C@@H](CSC/C=C(/C)CC/C=C(/C)CCC=C(C)C)C(=O)O`, for which, in assay [4], the inhibition was 100%.

Consider `CC(=O)N[C@@H](CSC/C=C(/Cc1ccc2c(c1)Cc1ccccc1-2)c1ccccc1)C(=O)O`, for which the inhibition in assay [1] is 25.3%. `CC(=O)N[C@@H](CSC/C=C(/Cc1ccccc1)c1ccccc1)C(=O)O`: the inhibition in assay [1] was 15.7%. The compound `CCCCCc1ccc(CC/C(C)=C/CSC[C@H](NC(C)=O)C(=O)O)cc1` gave an inhibition in assay [1] of 23.1%.

`CCCc1ccc(CC/C(C)=C/CSC[C@H](NC(C)=O)C(=O)O)cc1` gave an inhibition in assay [1] of 20.7%.

Take `CC(=O)N[C@@H](CSC/C=C(\C)CCCCOc1ccc2ccccc2c1)C(=O)O`: the inhibition in assay [1] was 22.4%.
